In data set [1] the target is Receptor-type tyrosine-protein kinase FLT3 (Homo sapiens) (UniProt P36888). The data set is described as follows: Inhibition of FLT3 at 1 uM relative to control.
In data set [2] the target is Casein kinase II subunit alpha (Homo sapiens) (UniProt P68400). Put plainly: Inhibition of CSNK2A1 at 1 uM relative to control.
Data set [3] addresses T1, Serine/threonine-protein kinase mTOR (Homo sapiens, UniProt P42345).
In data set [4] the target is T1, Serine/threonine-protein kinase mTOR. The source holds these as a separate data set.
The target is the same in data set [5]. This is another data set of the same source.
Description: Inhibition of mTOR in human U-87 cells assessed as inhibition of phosphorylation of AKT at S473
Data set [6] concerns the target Phosphatidylinositol 4,5-bisphosphate 3-kinase catalytic subunit alpha isoform (Homo sapiens, UniProt P42336).
Data set [7] addresses Phosphatidylinositol 4,5-bisphosphate 3-kinase catalytic subunit beta isoform (Homo sapiens, UniProt P42338).
Data set [8] deals with T2, Phosphatidylinositol 4,5-bisphosphate 3-kinase catalytic subunit delta isoform (Homo sapiens, UniProt O00329).
T2 sequence (O00329 whole entry): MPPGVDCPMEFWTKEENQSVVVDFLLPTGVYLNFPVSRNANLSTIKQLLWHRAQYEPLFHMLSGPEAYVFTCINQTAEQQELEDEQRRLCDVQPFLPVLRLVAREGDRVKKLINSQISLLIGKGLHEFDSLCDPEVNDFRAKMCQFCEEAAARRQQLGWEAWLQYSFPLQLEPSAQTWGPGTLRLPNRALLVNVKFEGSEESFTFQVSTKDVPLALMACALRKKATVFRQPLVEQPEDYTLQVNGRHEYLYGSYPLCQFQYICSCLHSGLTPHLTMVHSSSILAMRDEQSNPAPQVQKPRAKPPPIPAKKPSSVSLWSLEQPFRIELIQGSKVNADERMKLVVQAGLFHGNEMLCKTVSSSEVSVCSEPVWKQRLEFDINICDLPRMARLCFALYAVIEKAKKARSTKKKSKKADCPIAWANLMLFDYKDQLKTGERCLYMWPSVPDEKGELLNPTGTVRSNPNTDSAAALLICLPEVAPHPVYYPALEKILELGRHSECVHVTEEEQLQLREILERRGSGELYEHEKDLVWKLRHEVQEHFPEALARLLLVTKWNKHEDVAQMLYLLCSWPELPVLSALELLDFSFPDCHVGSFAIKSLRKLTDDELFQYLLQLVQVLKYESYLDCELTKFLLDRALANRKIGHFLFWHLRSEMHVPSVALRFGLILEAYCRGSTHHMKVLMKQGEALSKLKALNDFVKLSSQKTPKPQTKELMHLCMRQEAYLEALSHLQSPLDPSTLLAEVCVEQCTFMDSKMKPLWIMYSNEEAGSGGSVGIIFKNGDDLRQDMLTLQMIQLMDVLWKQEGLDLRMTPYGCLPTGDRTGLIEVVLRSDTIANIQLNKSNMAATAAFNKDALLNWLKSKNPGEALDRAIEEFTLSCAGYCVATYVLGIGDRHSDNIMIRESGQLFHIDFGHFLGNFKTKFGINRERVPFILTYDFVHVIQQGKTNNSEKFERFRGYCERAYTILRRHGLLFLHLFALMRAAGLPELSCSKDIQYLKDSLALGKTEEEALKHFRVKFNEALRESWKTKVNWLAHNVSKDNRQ

Data set [9] addresses Phosphatidylinositol 4,5-bisphosphate 3-kinase catalytic subunit gamma isoform (Homo sapiens, UniProt P48736).
For data set [10], the system named is Rattus norvegicus. The data set is described as follows: In vivo clearance in bile-duct cannulated rat assessed as multiple glucuronidation metabolites in bile by LC/MS analysis. In kind it is ADME, organism-based.
A short description of data set [11]: Clearance in Sprague-Dawley rat at 1 mg/kg, iv and 2 mg/kg, po. In kind it is ADME, organism-based. The settings on record: in vivo.
Data set [12] can be described thus: Volume of distribution at steady state in Sprague-Dawley rat at 1 mg/kg, iv and 2 mg/kg, po. In kind it is ADME, organism-based. Conditions: in vivo, read-out: Vdss; call rule not given here.
Data set [13] deals with Rattus norvegicus. The data set is described as follows: AUC in Sprague-Dawley rat at 1 mg/kg, iv. Conditions: in vivo. Details: dose 1 mg/kg, route intravenous. In kind it is ADME, organism-based, Plasma.
The nature of data set [14]: Half life in Sprague-Dawley rat at 1 mg/kg, iv. In kind it is ADME, organism-based. Details: dose 1 mg/kg, route intravenous. Conditions: in vivo.
Data set [15] can be described thus: Oral bioavailability in Sprague-Dawley rat at 2 mg/kg. In kind it is ADME, organism-based. The settings on record: in vivo.
Data set [16] can be described thus: Plasma protein binding in Sprague-Dawley rat at 1 mg/kg, iv and 2 mg/kg, po. Conditions: read-out: PPB (converted). In kind it is ADME, organism-based.
Data set [17] is described as follows: Intrinsic clearance in human liver microsomes. In kind it is ADME, Microsome.
Data set [18] can be described thus: Intrinsic clearance in rat liver microsomes. In kind it is ADME, Microsome. On the technique in general: Microsomes from liver hold many membrane-bound enzymes, among them those of drug oxidation.
Data set [19] deals with Liver. The data set is described as follows: Intrinsic clearance in rat liver hepatocytes. In kind it is ADME, cell-based, Hepatocyte.
A short description of data set [20]: Solubility of compound in 0.01 N HCL. In kind it is physicochemical. Conditions: buffer.
Data set [21] relates to Rattus norvegicus. The data set is described as follows: AUC in Sprague-Dawley rat at 5 mg/kg, po. In kind it is ADME, organism-based, Plasma. Details: dose 5 mg/kg, route oral. Conditions: in vivo.
The nature of data set [22]: Half life in Sprague-Dawley rat at 5 mg/kg, po. In kind it is ADME, organism-based. Details: dose 5 mg/kg, route oral. The settings on record: in vivo.
A short description of data set [23]: Clearance in Sprague-Dawley rat at 0.5 mg/kg, iv. In kind it is ADME, organism-based. Details: dose 0.5 mg/kg, route intravenous. The settings on record: in vivo.
A short description of data set [24]: Volume of distribution at steady state in Sprague-Dawley rat at 0.5 mg/kg, iv. In kind it is ADME, organism-based. Details: dose 0.5 mg/kg, route intravenous. The settings on record: in vivo, read-out: Vdss.
Data set [25] has as its system Rattus norvegicus. The data set is described as follows: AUC in Sprague-Dawley rat at 0.5 mg/kg, iv. The settings on record: in vivo. Details: dose 0.5 mg/kg, route intravenous. In kind it is ADME, organism-based, Plasma.
Data set [26] in a line: Half life in Sprague-Dawley rat at 0.5 mg/kg, iv. In kind it is ADME, organism-based. Details: dose 0.5 mg/kg, route intravenous. Conditions: in vivo.

≈ marks a conversion by molar mass, not a printed value.

Sequence of Phosphatidylinositol 4,5-bisphosphate 3-kinase catalytic subunit beta isoform (P42338 whole entry, canonical isoform): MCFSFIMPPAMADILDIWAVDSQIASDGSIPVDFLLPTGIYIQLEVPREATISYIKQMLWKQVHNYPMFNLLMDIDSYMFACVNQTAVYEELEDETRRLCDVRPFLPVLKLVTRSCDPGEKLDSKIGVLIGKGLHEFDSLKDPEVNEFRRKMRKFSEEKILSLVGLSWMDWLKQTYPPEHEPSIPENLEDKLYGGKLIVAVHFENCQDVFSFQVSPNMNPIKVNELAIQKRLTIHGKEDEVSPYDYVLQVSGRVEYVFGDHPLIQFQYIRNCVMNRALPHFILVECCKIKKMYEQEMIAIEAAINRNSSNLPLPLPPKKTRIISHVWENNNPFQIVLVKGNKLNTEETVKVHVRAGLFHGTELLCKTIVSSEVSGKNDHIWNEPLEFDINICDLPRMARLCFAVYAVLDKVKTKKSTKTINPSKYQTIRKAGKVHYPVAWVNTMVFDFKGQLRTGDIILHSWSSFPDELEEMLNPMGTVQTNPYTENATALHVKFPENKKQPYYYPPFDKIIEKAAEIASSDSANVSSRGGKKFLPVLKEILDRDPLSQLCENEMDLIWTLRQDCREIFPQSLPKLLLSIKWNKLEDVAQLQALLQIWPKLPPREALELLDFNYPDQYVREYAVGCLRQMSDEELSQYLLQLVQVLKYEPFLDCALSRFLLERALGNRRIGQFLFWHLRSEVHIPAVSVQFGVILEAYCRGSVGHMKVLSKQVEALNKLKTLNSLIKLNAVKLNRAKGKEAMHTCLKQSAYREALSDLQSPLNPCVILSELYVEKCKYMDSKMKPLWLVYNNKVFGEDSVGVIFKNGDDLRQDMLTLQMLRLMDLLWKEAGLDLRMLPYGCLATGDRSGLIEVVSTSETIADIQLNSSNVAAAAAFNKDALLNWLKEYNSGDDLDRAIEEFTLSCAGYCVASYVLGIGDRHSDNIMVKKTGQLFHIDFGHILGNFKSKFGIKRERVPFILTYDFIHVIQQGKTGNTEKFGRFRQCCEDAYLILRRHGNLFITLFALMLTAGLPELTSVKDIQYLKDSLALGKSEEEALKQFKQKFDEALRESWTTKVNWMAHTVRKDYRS
Sequence of Phosphatidylinositol 4,5-bisphosphate 3-kinase catalytic subunit alpha isoform (P42336 whole entry, canonical isoform): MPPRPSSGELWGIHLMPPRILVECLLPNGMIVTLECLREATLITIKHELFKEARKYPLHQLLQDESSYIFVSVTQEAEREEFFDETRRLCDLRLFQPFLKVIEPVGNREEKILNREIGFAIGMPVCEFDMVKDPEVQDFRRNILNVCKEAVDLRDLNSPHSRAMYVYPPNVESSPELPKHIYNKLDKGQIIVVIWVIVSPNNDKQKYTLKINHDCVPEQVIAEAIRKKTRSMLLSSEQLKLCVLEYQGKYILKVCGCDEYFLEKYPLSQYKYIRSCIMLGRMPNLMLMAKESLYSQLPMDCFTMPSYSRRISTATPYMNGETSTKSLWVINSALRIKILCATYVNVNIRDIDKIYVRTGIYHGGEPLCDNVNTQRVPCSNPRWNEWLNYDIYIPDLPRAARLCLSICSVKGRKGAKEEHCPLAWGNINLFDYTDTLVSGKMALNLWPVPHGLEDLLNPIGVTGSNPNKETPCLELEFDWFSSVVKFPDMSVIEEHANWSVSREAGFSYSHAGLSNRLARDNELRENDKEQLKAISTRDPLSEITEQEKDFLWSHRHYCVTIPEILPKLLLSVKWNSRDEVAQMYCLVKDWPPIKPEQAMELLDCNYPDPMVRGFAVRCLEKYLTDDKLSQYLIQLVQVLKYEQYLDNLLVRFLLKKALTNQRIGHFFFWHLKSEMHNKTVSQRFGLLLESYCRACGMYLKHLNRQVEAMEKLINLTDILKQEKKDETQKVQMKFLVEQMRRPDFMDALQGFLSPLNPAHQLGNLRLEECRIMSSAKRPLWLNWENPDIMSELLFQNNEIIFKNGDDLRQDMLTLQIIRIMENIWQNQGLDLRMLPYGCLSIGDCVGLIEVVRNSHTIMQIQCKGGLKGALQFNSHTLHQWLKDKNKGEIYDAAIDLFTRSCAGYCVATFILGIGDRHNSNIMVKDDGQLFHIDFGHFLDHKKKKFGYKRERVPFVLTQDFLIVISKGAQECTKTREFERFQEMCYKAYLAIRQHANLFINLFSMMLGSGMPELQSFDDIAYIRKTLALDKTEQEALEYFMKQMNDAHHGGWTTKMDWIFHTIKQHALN
Sequence of Phosphatidylinositol 4,5-bisphosphate 3-kinase catalytic subunit gamma isoform (P48736 whole entry, canonical isoform): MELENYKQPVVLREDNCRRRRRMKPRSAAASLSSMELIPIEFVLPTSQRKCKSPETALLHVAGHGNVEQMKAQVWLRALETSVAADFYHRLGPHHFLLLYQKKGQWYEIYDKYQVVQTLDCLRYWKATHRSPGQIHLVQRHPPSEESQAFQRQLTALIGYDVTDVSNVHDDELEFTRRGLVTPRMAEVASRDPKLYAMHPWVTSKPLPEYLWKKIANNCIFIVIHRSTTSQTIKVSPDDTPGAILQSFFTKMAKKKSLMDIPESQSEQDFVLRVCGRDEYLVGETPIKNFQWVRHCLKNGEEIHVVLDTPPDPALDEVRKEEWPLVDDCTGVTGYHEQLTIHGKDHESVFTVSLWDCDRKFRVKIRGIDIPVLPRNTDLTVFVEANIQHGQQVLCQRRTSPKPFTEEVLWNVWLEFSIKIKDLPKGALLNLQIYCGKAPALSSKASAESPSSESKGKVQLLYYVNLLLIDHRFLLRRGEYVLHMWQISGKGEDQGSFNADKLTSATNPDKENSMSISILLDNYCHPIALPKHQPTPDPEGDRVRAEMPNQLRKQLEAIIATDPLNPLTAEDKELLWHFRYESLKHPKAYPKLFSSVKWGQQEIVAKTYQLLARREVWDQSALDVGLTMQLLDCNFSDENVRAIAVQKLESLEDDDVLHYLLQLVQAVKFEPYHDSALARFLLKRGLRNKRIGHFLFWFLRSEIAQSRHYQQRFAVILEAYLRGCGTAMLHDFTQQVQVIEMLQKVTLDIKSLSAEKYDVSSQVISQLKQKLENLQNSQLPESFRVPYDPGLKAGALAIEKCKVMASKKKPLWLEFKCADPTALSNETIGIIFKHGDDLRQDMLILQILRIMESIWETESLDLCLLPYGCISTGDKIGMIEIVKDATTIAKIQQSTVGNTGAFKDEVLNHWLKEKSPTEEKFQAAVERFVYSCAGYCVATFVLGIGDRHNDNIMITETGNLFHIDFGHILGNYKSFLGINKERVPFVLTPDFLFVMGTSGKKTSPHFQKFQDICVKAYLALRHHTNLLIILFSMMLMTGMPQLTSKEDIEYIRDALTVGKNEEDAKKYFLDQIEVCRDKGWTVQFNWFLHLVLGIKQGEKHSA
Sequence of Casein kinase II subunit alpha (Homo sapiens) (P68400 whole entry, looked up): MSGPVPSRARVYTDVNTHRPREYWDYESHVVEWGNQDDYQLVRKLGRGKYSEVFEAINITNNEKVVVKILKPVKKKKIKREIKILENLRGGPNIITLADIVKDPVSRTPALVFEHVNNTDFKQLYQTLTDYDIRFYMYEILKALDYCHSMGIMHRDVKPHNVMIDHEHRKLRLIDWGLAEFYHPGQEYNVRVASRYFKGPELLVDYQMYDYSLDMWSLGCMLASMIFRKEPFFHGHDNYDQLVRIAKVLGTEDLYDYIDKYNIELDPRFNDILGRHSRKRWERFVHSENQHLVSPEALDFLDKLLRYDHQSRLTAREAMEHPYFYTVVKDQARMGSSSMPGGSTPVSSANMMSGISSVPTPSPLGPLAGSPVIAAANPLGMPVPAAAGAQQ
Sequence of Receptor-type tyrosine-protein kinase FLT3 (Homo sapiens) (P36888 whole entry): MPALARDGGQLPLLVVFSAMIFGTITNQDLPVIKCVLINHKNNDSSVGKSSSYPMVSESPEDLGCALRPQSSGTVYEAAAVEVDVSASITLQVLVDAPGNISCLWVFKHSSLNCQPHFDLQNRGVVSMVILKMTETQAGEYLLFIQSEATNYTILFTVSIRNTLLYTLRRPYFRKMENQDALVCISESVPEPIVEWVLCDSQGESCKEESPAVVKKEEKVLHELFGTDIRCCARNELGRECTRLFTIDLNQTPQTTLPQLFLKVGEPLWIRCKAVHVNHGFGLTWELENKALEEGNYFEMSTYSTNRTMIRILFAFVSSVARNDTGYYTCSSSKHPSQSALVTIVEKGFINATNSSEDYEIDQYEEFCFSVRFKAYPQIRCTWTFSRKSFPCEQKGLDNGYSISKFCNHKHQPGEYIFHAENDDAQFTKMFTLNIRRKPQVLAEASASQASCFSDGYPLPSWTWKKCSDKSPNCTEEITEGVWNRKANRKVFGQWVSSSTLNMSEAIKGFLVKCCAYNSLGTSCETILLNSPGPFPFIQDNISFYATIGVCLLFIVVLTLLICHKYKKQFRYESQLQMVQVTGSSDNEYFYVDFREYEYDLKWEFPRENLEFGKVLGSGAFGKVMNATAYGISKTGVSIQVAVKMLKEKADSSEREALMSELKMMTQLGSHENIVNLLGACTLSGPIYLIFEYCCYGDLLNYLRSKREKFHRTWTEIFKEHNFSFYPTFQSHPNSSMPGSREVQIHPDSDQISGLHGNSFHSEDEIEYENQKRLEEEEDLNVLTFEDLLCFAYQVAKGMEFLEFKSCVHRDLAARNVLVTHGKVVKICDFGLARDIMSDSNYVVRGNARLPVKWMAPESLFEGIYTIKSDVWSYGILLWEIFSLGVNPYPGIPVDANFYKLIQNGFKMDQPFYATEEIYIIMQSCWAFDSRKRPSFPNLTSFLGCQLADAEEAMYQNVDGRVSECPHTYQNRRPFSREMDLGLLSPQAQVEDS

A word on the inhibition: it is the change of the read-out against control, counted positive when it falls. A lower inhibition goes with a response near the control. In general, IC50 refers to the concentration needed to halve the response being measured. A lower IC50 goes with greater potency in that assay. Turning to `Cc1nc(N)nc(-n2c(Nc3cccc(O)c3)nc3ccccc32)n1`, the inhibition in [1] is 14%; in data set [2], 15%. The concentration for half-maximal inhibition (IC50) was 7 nM in data set [3]; 150 nM in data set [4]; 9 nM in data set [5]; 4 nM in data set [6]; 9 nM in [7]; 3 nM in data set [8]. For the same compound, 8 nM corresponded to half-maximal inhibition in [9] (IC50).

Broadly, the half-life is the time in which the quantity being followed falls by half. Read a high half-life as slow decline. As a reminder, the bioavailability is the share of a dose that reaches the circulation, judged against a reference dose that is usually intravenous. A lower bioavailability goes with little systemic uptake. As usually defined, the microsomal CLint is a measure of how fast metabolising enzymes remove a compound, apart from limits set by blood flow. A higher microsomal CLint goes with rapid turnover. As usually defined, the solubility is the dissolved amount per volume that the medium holds. Low readings indicate little dissolved substance, high ones much dissolved substance. Regarding `Cc1nc(N)nc(-n2c(Nc3ccn[nH]3)nc3ccccc32)n1`, the outcome in data set [10] was Active. The clearance in data set [11] was 31.7 mL/min/kg. Further, the Vd in [12] came out at 1.1 L/kg. The compound also showed an AUC in data set [13] of 1680 nM. In addition, the half-life in [14] was 43.2 min. Moreover, the bioavailability in data set [15] turned out to be 6.3%. In data set [16], the fraction unbound is 0.028. The microsomal CLint in data set [17] is 79 µL/min/mg; in data set [18], 52 µL/min/mg. In addition, in data set [19], the CL turned out to be 28 µL/min/mg. In addition, in data set [20], the solubility was found to be 37 µg/mL (≈ 120 µM). For the same compound, the IC50 in data set [3] amounted to 27 nM; in data set [4], 390 nM; in data set [5], 55 nM; in data set [6], 800 nM; in [7], 870 nM; in data set [8], 510 nM.

`Cc1nc(N)nc(-n2c(Nc3ccn[nH]3)nc3cc(F)c(F)cc32)n1` showed a clearance in [11] of 50 mL/min/kg. The Vd in data set [12] was 3 L/kg. The compound also registered an AUC in data set [13] of 964 nM. The compound further gave a half-life in data set [14] of 42 min. In data set [15], this compound showed a bioavailability of 6%. Besides, in [16], the fraction unbound was 0.01. For the same compound, the half-inhibitory concentration (IC50) in data set [3] came to 24 nM; in data set [4], 340 nM; in data set [5], 45 nM; in data set [7] it was 1000 nM; in data set [8] it was 110 nM; in [9], 250 nM.

As for `Cc1nc(NCCC#N)nc(-n2c(Nc3cc[nH]n3)nc3ccccc32)n1`, the AUC in data set [21] stood at 1020 nM. The compound further had a half-life in data set [22] of 42 min. The IC50 is 60 nM in data set [3]; 1300 nM in data set [4]; 82 nM in [5]; 7700 nM in data set [6]; 15400 nM in data set [7]; 5800 nM in data set [8]. In [9], this compound registered an IC50 of 6200 nM.

In turn, `Cc1nc(N)nc(-n2c(Nc3ccon3)nc3ccccc32)n1` had a clearance in data set [11] of 30 mL/min/kg. Also, in data set [12], the Vd worked out at 1.4 L/kg. The AUC in data set [13] amounted to 1930 nM. Further, the half-life in data set [14] is 30 min. The fraction unbound in data set [16] was 0.023. The values for the microsomal CLint in [17] and in data set [18] were 39 µL/min/mg and 46 µL/min/mg, respectively. The 50% inhibitory concentration (IC50) in [3] amounted to 150 nM; in data set [4], 3300 nM; in data set [5] it was 260 nM; in data set [6], 840 nM; in data set [7] it was 3100 nM; in [8], 1300 nM. For the same compound, in data set [9], the IC50 was 2300 nM.

Regarding `Cc1nc(NCC#N)nc(-n2c(Nc3ccn[nH]3)nc3ccccc32)n1`, the clearance in [23] is 41.7 mL/min/kg. In addition, in data set [24], the Vd came out at 1.5 L/kg. In addition, in data set [25], the AUC worked out at 559 nM. The same compound had a half-life in data set [26] of 27 min. This compound also showed a bioavailability in [15] of 0%. For the same compound, in data set [16], the fraction unbound is 0.016. Further, the concentration for half-maximal inhibition (IC50) turned out to be 31 nM in [3]; 600 nM in [4]; 73 nM in [5]; 6200 nM in data set [6]; 8500 nM in data set [7]; 4000 nM in data set [8]. Besides, in [9], half-maximal inhibition (IC50) was put at 3600 nM.

`CC(=O)Nc1ccc(Nc2nc3ccccc3n2-c2nc(C)nc(N)n2)cc1`: the IC50 was 13 nM in data set [3]; 340 nM in data set [4]; 180 nM in [5]; 23 nM in data set [6]; 410 nM in data set [7]; 71 nM in data set [8]. The compound further displayed an IC50 in data set [9] of 20 nM.
